The results in this text go back to ChEMBL document CHEMBL1156040, “Identification and optimisation of novel and selective small molecular weight kinase inhibitors of mTOR” (Bioorg Med Chem Lett, 2009).

In one data set the test system is MDR1 (human). Kind of data set: Apparent permeability from apical to basolateral side in MDCK2 cells expressing human MDR1 at 10 uM. It is filed as ADME, cell-based, Canis lupus familiaris, MDCK-II. The following applies: dog, MDCK-MDR1.
Data set [1] deals with T1, Serine/threonine-protein kinase mTOR (Homo sapiens, UniProt P42345). Kind of data set: Inhibition of mTOR kinase in human HeLa cells at 10 uM by ELISA. It is filed as cell-based. The arrangement: scale not given: the % may be the effect or the level left.
Data set [2] deals with T1, Serine/threonine-protein kinase mTOR. Kind of data set: Inhibition of mTOR kinase in human HeLa cells by ELISA. The format is cell-based. Background: In an ELISA, binding on a coated surface is turned into a signal by an enzyme label.
A short description of data set [3]: Growth inhibition of human U87MG cells. The settings on record: U-87 MG. The format is functional, U-87MG ATCC.
Data set [4] deals with Phosphatidylinositol 4,5-bisphosphate 3-kinase catalytic subunit alpha isoform (Homo sapiens, UniProt P42336). Kind of data set: Inhibition of PI3Kalpha kinase.
Sequence of Phosphatidylinositol 4,5-bisphosphate 3-kinase catalytic subunit alpha isoform (P42336 whole entry, canonical isoform): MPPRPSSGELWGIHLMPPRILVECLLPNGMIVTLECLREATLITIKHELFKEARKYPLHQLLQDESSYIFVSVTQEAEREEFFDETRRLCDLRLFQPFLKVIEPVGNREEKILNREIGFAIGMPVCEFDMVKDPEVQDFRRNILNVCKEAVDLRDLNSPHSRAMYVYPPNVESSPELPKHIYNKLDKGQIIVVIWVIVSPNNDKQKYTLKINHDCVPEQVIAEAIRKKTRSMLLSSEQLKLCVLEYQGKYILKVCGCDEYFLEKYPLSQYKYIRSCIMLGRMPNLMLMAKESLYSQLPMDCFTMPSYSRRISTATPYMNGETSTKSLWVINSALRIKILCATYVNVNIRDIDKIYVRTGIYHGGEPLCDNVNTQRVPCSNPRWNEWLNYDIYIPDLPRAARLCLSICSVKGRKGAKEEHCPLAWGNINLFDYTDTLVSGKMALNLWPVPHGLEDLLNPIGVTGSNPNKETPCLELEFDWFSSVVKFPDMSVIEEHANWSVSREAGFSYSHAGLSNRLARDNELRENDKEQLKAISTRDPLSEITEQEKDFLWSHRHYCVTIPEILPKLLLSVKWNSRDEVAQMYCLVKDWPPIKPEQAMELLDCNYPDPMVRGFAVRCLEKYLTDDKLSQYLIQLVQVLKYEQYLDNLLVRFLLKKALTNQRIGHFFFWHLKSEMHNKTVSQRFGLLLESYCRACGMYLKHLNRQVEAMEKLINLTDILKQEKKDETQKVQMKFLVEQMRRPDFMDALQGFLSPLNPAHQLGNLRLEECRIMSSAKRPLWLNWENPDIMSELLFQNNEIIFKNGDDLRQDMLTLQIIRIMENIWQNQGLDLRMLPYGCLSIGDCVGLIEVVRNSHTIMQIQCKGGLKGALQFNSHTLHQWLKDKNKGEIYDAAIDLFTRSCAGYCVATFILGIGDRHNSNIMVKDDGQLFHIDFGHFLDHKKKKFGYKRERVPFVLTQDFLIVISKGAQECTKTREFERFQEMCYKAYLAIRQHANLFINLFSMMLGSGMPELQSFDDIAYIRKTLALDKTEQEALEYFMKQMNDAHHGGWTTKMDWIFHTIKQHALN
Data set [5] concerns the target Serine-protein kinase ATM (Homo sapiens, UniProt Q13315). The data set is described as follows: Inhibition of ATM.

Sequence of Serine-protein kinase ATM (Q13315 whole entry): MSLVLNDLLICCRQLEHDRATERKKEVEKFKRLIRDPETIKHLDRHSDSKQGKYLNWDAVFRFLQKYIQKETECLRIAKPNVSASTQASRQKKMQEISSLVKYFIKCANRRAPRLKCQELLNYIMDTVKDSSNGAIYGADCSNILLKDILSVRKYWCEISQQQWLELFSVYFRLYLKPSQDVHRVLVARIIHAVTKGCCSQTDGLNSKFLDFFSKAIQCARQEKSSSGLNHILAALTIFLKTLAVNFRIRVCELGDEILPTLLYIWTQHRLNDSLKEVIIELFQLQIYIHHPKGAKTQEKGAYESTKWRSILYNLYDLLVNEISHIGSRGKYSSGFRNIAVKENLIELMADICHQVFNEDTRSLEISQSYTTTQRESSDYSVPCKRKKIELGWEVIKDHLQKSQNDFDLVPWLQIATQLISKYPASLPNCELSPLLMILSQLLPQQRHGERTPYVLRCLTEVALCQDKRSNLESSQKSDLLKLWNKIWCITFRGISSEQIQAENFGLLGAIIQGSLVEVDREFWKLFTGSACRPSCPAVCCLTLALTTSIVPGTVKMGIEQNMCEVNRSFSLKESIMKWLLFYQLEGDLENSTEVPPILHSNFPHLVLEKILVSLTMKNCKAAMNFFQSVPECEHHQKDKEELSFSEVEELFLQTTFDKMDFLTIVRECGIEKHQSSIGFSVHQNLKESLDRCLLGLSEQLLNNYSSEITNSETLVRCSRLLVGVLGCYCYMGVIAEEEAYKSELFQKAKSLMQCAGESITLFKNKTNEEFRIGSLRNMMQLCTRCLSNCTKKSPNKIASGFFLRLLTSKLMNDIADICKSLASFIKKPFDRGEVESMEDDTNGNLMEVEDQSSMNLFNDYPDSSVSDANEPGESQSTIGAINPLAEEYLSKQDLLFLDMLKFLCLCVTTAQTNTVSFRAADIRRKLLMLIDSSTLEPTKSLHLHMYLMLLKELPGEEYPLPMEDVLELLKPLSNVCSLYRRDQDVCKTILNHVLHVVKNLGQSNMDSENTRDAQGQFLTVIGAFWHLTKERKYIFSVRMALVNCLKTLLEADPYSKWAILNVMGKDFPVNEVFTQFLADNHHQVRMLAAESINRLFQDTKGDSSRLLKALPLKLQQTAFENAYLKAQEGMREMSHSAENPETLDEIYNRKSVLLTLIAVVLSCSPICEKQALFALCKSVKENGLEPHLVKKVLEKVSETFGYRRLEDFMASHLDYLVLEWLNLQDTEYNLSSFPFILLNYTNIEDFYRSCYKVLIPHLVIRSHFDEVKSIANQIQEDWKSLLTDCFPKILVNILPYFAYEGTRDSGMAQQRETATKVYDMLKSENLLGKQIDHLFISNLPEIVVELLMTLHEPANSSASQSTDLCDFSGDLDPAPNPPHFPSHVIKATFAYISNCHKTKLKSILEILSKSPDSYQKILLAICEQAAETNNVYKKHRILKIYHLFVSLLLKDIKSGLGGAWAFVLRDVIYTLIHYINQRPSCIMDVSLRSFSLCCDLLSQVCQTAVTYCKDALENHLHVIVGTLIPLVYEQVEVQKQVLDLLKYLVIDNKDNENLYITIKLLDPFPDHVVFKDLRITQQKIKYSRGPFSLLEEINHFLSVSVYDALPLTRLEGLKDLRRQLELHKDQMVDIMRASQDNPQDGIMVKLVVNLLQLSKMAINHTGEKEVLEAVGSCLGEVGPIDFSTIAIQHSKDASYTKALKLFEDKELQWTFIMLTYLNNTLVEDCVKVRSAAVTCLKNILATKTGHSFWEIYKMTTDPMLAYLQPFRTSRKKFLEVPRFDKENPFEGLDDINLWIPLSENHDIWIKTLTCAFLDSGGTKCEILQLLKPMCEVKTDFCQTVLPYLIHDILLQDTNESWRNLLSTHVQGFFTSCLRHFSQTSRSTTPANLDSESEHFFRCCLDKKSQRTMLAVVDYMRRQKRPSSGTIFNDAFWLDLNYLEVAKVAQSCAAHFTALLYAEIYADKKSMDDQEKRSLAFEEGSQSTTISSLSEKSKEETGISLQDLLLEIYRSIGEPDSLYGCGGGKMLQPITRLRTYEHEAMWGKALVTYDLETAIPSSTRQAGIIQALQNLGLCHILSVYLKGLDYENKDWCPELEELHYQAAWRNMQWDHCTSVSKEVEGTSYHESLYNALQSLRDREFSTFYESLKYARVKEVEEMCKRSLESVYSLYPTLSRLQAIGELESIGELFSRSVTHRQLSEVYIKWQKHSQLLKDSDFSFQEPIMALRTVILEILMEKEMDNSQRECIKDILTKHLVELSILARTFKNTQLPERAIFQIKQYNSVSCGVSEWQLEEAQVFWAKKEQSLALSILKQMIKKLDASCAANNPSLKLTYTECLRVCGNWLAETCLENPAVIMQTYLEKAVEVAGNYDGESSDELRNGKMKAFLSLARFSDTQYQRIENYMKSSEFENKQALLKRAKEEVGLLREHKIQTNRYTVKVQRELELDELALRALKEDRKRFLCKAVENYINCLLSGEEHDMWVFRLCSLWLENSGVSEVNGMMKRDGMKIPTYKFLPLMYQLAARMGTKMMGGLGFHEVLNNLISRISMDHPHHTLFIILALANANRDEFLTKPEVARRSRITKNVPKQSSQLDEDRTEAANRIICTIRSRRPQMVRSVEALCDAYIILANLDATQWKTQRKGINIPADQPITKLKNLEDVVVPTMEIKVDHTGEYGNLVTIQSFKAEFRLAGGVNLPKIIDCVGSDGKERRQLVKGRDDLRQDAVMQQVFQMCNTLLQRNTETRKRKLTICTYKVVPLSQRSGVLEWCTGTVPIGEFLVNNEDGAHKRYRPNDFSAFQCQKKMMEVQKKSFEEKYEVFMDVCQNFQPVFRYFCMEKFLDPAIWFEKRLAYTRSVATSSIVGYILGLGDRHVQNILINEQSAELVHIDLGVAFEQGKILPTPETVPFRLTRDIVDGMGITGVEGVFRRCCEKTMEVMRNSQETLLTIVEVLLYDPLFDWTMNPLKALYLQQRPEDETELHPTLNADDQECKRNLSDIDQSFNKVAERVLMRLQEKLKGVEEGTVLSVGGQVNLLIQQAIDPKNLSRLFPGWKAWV

Broadly, the Papp A→B is the apparent permeability from the apical to the basolateral side of a cell layer. For the compound `Oc1cccc(-c2ccc(-c3cc(N4CCOCC4)nc(N4CCOCC4)n3)o2)c1`, the Papp A→B at 10 µM in the data set on MDR1 (human) was 2.2 ×10⁻⁶ cm/s.

`OCc1cccc(-c2ccc(-c3cc(N4CCOCC4)nc(N4CCOCC4)n3)o2)c1`: in the data set on MDR1 (human), the Papp A→B at 10 µM turned out to be 33 ×10⁻⁶ cm/s.

Regarding `COc1cc(-c2ccc(-c3ccnc(N4CCOCC4)n3)s2)cc(OC)c1O`, the Activity in data set [1] was < 50%.

A word on the IC50: it is the point on the concentration scale where inhibition reaches its midpoint. As for `c1cc2cc(-c3ccc(-c4cc(N5CCOCC5)nc(N5CCOCC5)n4)o3)ccc2[nH]1`, in data set [2], the IC50 is > 10000 nM.

For orientation: GI50 means the concentration at which growth is held to half of that of the control. `COc1cc(-c2ccc(-c3ccnc(N4CCOCC4)n3)o2)cc(OC)c1O` had a GI50 in data set [3] of 3.7 µM. The IC50 is > 10 µM in data set [4] and 52 nM in data set [2].

Take `COc1cc(-c2cnn(-c3ccnc(N4CCOCC4)n3)c2)cc(OC)c1O`: in data set [1], the Activity is < 50%.

`COc1cc(-c2ccc(-c3cc(N4CCOCC4)nc(N4CCOCC4)n3)o2)cc(OC)c1O` showed a GI50 in data set [3] of 16 µM. Moreover, the 50% inhibitory concentration (IC50) was > 10 µM in data set [4] and 23 nM in data set [2].

For the compound `COc1cc(-c2csc(-c3ccnc(N4CCOCC4)n3)n2)cc(OC)c1O`, it took 21 µM to inhibit growth in data set [3] by half (GI50). Also, the IC50 in data set [4] is > 10 µM; in data set [2] it was 180 nM.

`COc1cc(/C=N/Nc2nc(N3CCOCC3)nc(N3CCOCC3)n2)cc(OC)c1O`: the IC50 in data set [5] is > 10 µM; in data set [4] it was > 10 µM; in data set [2] it was 270 nM.

`COc1cc(-c2cn(-c3nc(N4CCOCC4)nc(N4CCOCC4)n3)cn2)cc(OC)c1O` came in with a GI50 in data set [3] of 24 µM. For the same compound, the IC50 in data set [4] was > 10 µM.
